# Measurements as given in ChEMBL document CHEMBL1201862, “PubChem BioAssay data set” (2004).
#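 A five-concentration, 48-hour dose response in 96-well plates underlies each endpoint, interpolated linearly between surrounding concentrations. At the GI50, growth is halved.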 Active and inactive are the calls of the source. Rule as the data show it: active = GI50 up to about 1.1 µM and inactive = higher.
# Tests used:
# Assay in all cases: inhibition of tumour cell growth, NCI panel, 48 h
# HCT-116 = test system: HCT-116
# U-251 = test system: U-251
# Malme-3M = test system: Malme-3M
# SF-295 = test system: SF-295
# UO-31 = test system: UO-31
# M19-MEL = test system: M19-MEL
# DLD-1 = test system: DLD-1
# OVCAR-4 = test system: OVCAR-4
# HOP-18 = test system: HOP-18
# SK-MEL-2 = test system: SK-MEL-2
# SF-539 = test system: SF-539
# RXF 393 = test system: RXF 393
# MOLT-4 = test system: MOLT-4
# TK-10 = test system: TK-10
# NCI-H460 = test system: NCI-H460
# SNB-75 = test system: SNB-75
# RPMI-8226 = test system: RPMI-8226
# 786-0 = test system: 786-0
# DMS-114 = test system: DMS-114
# UACC-62 = test system: UACC-62
# SK-MEL-28 = test system: SK-MEL-28
# DMS-273 = test system: DMS-273
# SN12C = test system: SN12C
# UACC-257 = test system: UACC-257
# SR = test system: SR
# A549 = test system: A549
# HCT-15 = test system: HCT-15
# SF-268 = test system: SF-268
# IGROV-1 = test system: IGROV-1
# RXF 631 = test system: RXF 631
# KM12 = test system: KM12
# OVCAR-5 = test system: OVCAR-5
# CAKI-1 = test system: CAKI-1
# HT-29 = test system: HT-29
# XF498 = test system: XF498
# A498 = test system: A498
# OVCAR-3 = test system: OVCAR-3
# HCC 2998 = test system: HCC 2998
# SNB-19 = test system: SNB-19
# NCI-H226 = test system: NCI-H226
# K562 = test system: K562
# ACHN = test system: ACHN
# LXFL 529 = test system: LXFL 529
# OVCAR-8 = test system: OVCAR-8
# CCRF-CEM = test system: CCRF-CEM
# SW-620 = test system: SW-620
# LOX IMVI = test system: LOX IMVI
# NCI-H23 = test system: NCI-H23
# SK-MEL-5 = test system: SK-MEL-5
# COLO 205 = test system: COLO 205
# HOP-92 = test system: HOP-92
# NCI-H522 = test system: NCI-H522
# M14 = test system: M14
# HOP-62 = test system: HOP-62
# SK-OV-3 = test system: SK-OV-3
# SNB-78 = test system: SNB-78
# EKVX = test system: EKVX
# KM-20L2 = test system: KM-20L2
smiles,measurement,setting,value
COc1cccc(/C=C2\CCC(CCN(C)C)(C3=CCCC3)C2=O)c1 (configuration not stated),GI50,HCT-116,13.8 µM (inactive)
same,GI50,U-251,16.6 µM (inactive)
same,GI50,Malme-3M,15.6 µM (inactive)
same,GI50,SF-295,17 µM (inactive)
same,GI50,UO-31,13.6 µM (inactive)
same,GI50,M19-MEL,16.4 µM (inactive)
same,GI50,DLD-1,17.8 µM (inactive)
same,GI50,OVCAR-4,16.4 µM (inactive)
same,GI50,HOP-18,13.7 µM (inactive)
same,GI50,SK-MEL-2,15.9 µM (inactive)
same,GI50,SF-539,16.1 µM (inactive)
same,GI50,RXF 393,8.73 µM (inactive)
same,GI50,MOLT-4,13.9 µM (inactive)
same,GI50,TK-10,15.8 µM (inactive)
same,GI50,NCI-H460,15.8 µM (inactive)
same,GI50,SNB-75,15.9 µM (inactive)
same,GI50,RPMI-8226,11.7 µM (inactive)
same,GI50,786-0,14.7 µM (inactive)
same,GI50,DMS-114,14.3 µM (inactive)
same,GI50,UACC-62,15.4 µM (inactive)
same,GI50,SK-MEL-28,15.9 µM (inactive)
same,GI50,DMS-273,14.4 µM (inactive)
same,GI50,SN12C,14.9 µM (inactive)
same,GI50,UACC-257,15.5 µM (inactive)
same,GI50,SR,35.5 µM (inactive)
same,GI50,A549,16.1 µM (inactive)
same,GI50,HCT-15,16.2 µM
same,GI50,SF-268,21.3 µM (inactive)
same,GI50,IGROV-1,15.8 µM (inactive)
same,GI50,RXF 631,23.7 µM (inactive)
same,GI50,KM12,17.2 µM (inactive)
same,GI50,OVCAR-5,14.6 µM (inactive)
same,GI50,CAKI-1,12.3 µM (inactive)
same,GI50,HT-29,13.8 µM (inactive)
same,GI50,XF498,17.7 µM (inactive)
same,GI50,A498,15.7 µM (inactive)
same,GI50,OVCAR-3,17.3 µM (inactive)
same,GI50,HCC 2998,16.7 µM (inactive)
same,GI50,SNB-19,16.8 µM (inactive)
same,GI50,NCI-H226,17.1 µM (inactive)
same,GI50,K562,15.5 µM (inactive)
same,GI50,ACHN,16.7 µM (inactive)
same,GI50,LXFL 529,15.5 µM (inactive)
same,GI50,OVCAR-8,17.3 µM (inactive)
same,GI50,CCRF-CEM,19.1 µM (inactive)
same,GI50,SW-620,13.9 µM (inactive)
same,GI50,LOX IMVI,15.6 µM (inactive)
same,GI50,NCI-H23,19.3 µM (inactive)
same,GI50,SK-MEL-5,17.7 µM (inactive)
same,GI50,COLO 205,8.3 µM (inactive)
same,GI50,HOP-92,12.3 µM (inactive)
same,GI50,NCI-H522,13.4 µM (inactive)
same,GI50,M14,14.4 µM (inactive)
same,GI50,HOP-62,17.2 µM (inactive)
O=C(O/C(=C(/N=N/c1ccccc1)c1ccccc1)c1ccccc1)c1ccccc1,GI50,HCT-116,> 100 µM (inactive)
same,GI50,U-251,> 100 µM (inactive)
same,GI50,Malme-3M,> 100 µM (inactive)
same,GI50,SF-295,> 100 µM (inactive)
same,GI50,UO-31,> 100 µM (inactive)
same,GI50,DLD-1,89.1 µM (inactive)
same,GI50,OVCAR-4,> 100 µM (inactive)
same,GI50,HOP-18,> 100 µM (inactive)
same,GI50,SK-MEL-2,> 100 µM (inactive)
same,GI50,SF-539,> 100 µM (inactive)
same,GI50,RXF 393,> 100 µM (inactive)
same,GI50,MOLT-4,> 100 µM (inactive)
same,GI50,TK-10,> 100 µM (inactive)
same,GI50,NCI-H460,> 100 µM (inactive)
same,GI50,SNB-75,87.3 µM (inactive)
same,GI50,RPMI-8226,> 100 µM (inactive)
same,GI50,786-0,> 100 µM (inactive)
same,GI50,SK-OV-3,> 100 µM (inactive)
same,GI50,DMS-114,> 100 µM (inactive)
same,GI50,UACC-62,> 100 µM (inactive)
same,GI50,SK-MEL-28,> 100 µM (inactive)
same,GI50,SNB-78,> 100 µM (inactive)
same,GI50,SN12C,> 100 µM (inactive)
same,GI50,UACC-257,> 100 µM (inactive)
same,GI50,SR,> 100 µM (inactive)
same,GI50,A549,> 100 µM (inactive)
same,GI50,HCT-15,> 100 µM
same,GI50,IGROV-1,> 100 µM (inactive)
same,GI50,RXF 631,16.7 µM (inactive)
same,GI50,KM12,> 100 µM (inactive)
same,GI50,OVCAR-5,> 100 µM (inactive)
same,GI50,CAKI-1,> 100 µM (inactive)
same,GI50,HT-29,> 100 µM (inactive)
same,GI50,EKVX,> 100 µM (inactive)
same,GI50,XF498,> 100 µM (inactive)
same,GI50,KM-20L2,> 100 µM (inactive)
same,GI50,HCC 2998,> 100 µM (inactive)
same,GI50,SNB-19,> 100 µM (inactive)
same,GI50,NCI-H226,> 100 µM (inactive)
same,GI50,K562,48.1 µM (inactive)
same,GI50,ACHN,> 100 µM (inactive)
same,GI50,LXFL 529,> 100 µM (inactive)
same,GI50,OVCAR-8,> 100 µM (inactive)
same,GI50,SW-620,> 100 µM (inactive)
same,GI50,NCI-H23,> 100 µM (inactive)
same,GI50,SK-MEL-5,> 100 µM (inactive)
same,GI50,HOP-92,82 µM (inactive)
same,GI50,NCI-H522,> 100 µM (inactive)
